We go through five compounds from patent US5028726A, “Platinum amine sulfoxide complexes” (The University of Vermont and State Agricultural College, priority 1990, dated 1991).

The subject of one data set is B16 melanoma. Kind of data set: In vivo efficacy, B16 melanoma, compared to cisplatin. Also on record: species or system mice. Conditions: tumor s.c., drug i.p.
The conditions of data set [1]: clinical, compared with parent complex cisplatin; cited from earlier work.
In data set [2] the test system is L1210/0 murine leukemia cells. Kind of data set: In vitro cytotoxicity, DDP-sensitive L1210/0 cells. The following applies: L1210/0, DDP-sensitive; 72 hours; read-out: In Vitro Activity in L1210 Leukemia, L1210/O (ID50). It is filed as cell-based. As for the experimental part: (§1) L1210 murine leukemia cells sensitive to the cytotoxicity of DDP (L1210/0) were cultured as a suspension in McCoy's 5A medium supplemented with 5% donor horse serum and glutamine. L1210 cells, 40-60 fold resistant to DDP (L1210/DDP) or 30-fold resistant to [Pt(R,R-dach)SO4 ] (L1210/dach), were cultured in McCoy's 5A medium supplemented with 10% fetal bovine serum and glutamine. Both cell lines were grown in a humidified atmosphere to 5% CO2 : 95% air at 37° C. For testing purposes, cells were diluted to 5×10^4 cells/ml and 1 ml of cell suspension aliquoted to disposable tissue culture tubes. Test compound was then added to the appropriate tubes (40 μl/tube) to attain final concentrations of 0.01, 0.1, 1.0 and 10 μg/ml. After 72 hours, the cell concentrations of all tubes were determined using a Coulter counter. The percent growth inhibition for each drug concentration was then calculated and the ID 50 (concentration of drug required to inhibit cell growth by 50%) was derived. The resistance factor for each compound was obtained by dividing the ID50 (L1210/DDP) by the ID50 (L1210/0).
(§2) In Vitro Activity (μM) of [PtCl(R2 SO)(damch)]NO3 in L1210

The test system of another data set is L1210/DDP cells. The experiment in a line: In vitro cytotoxicity, DDP-resistant L1210/DDP cells. Format: cell-based, murine. The following applies: for Resistance Factor (R), L1210/DDP: ID50 (L1210/DDP) divided by ID50 (L1210/0), 4320 min; for IC50: L1210/DDP, 40-60 fold resistant to DDP, 72 hours, read-out: In Vitro Activity in L1210 Leukemia, L1210/DDP (ID50). As for the experimental part: as §1, §2
(§3) ^a R = Resistance Factor which is defined as ID50 (Sensitive or […]

For a further data set, the system named is L1210 leukemia. Kind of data set: In vivo efficacy, L1210 leukemia in mice. On the set-up: species or system murine (male BDR mice). The following applies: days 1, 5 and 9. As for the experimental part:
(§4) Male BDR mice weighing 18-20 gm were purchased from the National Cancer Institute and housed in an environment having controlled humidity, temperature and photoperiods. The animals had food and water available ad libitum and wood chip bedding was changed daily. The L1210/0 and P388 murine leukemias were maintained as ascites tumors by weekly intraperitoneal (i.p.) inoculations of 10^6 cells For testing purposes, 10^6 tumor cells were inoculated i.p. (day 0) and mice were administered test compound i.p. on days 1, 5 and 9. Animals were observed daily for signs of toxicity and deaths and the day of death recorded for each animal that died during the 60 day observation period. The efficacy of each dose of compound tested was evaluated by calculating the percent increased life span determined by dividing the mean survival time of treated mice (using the day of death of only those animals that dies during the 60 day period) by the mean survival time of non-treated tumor bearing control animals (% T/C). […] An additional index of antitumor activity is the number of long term survivors defined as treated animals alive at the end of the study. The complexes tested and the results observed are summarized in Table 3 (L1210 leukemia) and in Table 4 (P338 leukemia). The data in Table 5 compares to the in vivo activity of [PtCl(n-Bu2 SO)](damch)NO3 with that of cisplatin.

The subject of another data set is P388 leukemia. Kind of data set: In vivo efficacy, P388 leukemia in mice. Also on record: species or system murine (male BDR mice). The following applies: days 1, 5 and 9. As for the experimental part:
as §4

A further data set relates to L1210/dach cells. Kind of data set: In vitro cytotoxicity, [Pt(R,R-dach)SO4]-resistant L1210/dach cells. Format: cell-based, murine. As for the experimental part:
as §1, §2, §3

Setting [3] is: dose 3 × 12.5, complex in saline.

`N.N.[Cl][Pt][Cl]` [Cisplatin, cis-[PtCl2 (NH3)2], reference compound]: in the data set with B16 melanoma (dose 3 × 5), the “% T/C, B16 melanoma” value was 170%.
Consider `N.N.O=C([O-])C1(C(=O)[O-])CCC1.[Pt+2]` [carboplatin, [Pt(NH3)2 (CBDCA)]], for which, in data set [1], the nephrotoxicity entry is reported as “reduction in the severe nephrotoxicity of the parent complex”.
For the compound “[PtCl(R2 SO)(damch)]NO3, R = Me [reference compound]”, the IC50 in data set [2] turned out to be 1090 nM. Besides, in the data set on L1210/DDP cells, the “Resistance Factor (R), L1210/DDP” value came to 3.58 and the IC50 is 3900 nM. Besides, in the data set on L1210 leukemia (3 × 100 mg/kg i.p.), the “% T/C, L1210 leukemia” value was found to be 152%.
Turning to [PtCl(R2 SO)(damch)]NO3, R = n-Pr, the values for the IC50 (in data set [2]; in the data set on L1210/DDP cells) were 620 nM and 2920 nM, respectively. The “Resistance Factor (R), L1210/DDP” value in the data set with L1210/DDP cells is listed as 4.70. For the same compound, the “% T/C, L1210 leukemia” value with L1210 leukemia (3 × 12.5 mg/kg i.p.) is listed as 162%; in the data set on L1210 leukemia (3 × 25 mg/kg i.p.), 185%.
On to [PtCl(damch)(n-Bu2 SO)]^+ NO3 ^-, for which the IC50 in data set [2] turned out to be 390 nM; in the data set on L1210/DDP cells, 2360 nM; in the data set with L1210/dach cells (L1210/dach, 30-fold resistant to [Pt(R,R-dach)SO4], 72 hours, read-out: In Vitro Activity in L1210 Leukemia, L1210/dach (ID50)), 5360 nM. The “Resistance Factor (R), L1210/DDP” value with L1210/DDP cells turned out to be 6.05. The “% T/C, P388 leukemia” value with P388 leukemia (dose 3 × 6.25, i.p.) stood at 167%; with P388 leukemia (dose 3 × 12.5, i.p.), 146%; in the data set on P388 leukemia (dose 3 × 25 (D5W), i.p.), 195%; in the data set with P388 leukemia (dose 3 × 25, i.p.) it was 189%. Moreover, in the data set with L1210/dach cells (resistance factor for L1210/dach versus L1210/0, 4320 min), the “Resistance Factor (R), L1210/dach” value turned out to be 41.23. Further, the “% T/C, L1210 leukemia” value in the data set on L1210 leukemia (3 × 25 mg/kg (D5W) i.p.) was determined as 260%. Moreover, the “% T/C, B16 melanoma” value with B16 melanoma (dose 3 × 6.25, complex in saline) worked out at 154%; in the data set on B16 melanoma (setting [3]), 136%; in the data set on B16 melanoma (dose 3 × 25, complex in saline) it was 188%. The “figure in parentheses after % T/C (presumably long term survivors), B16 melanoma” value with B16 melanoma (setting [3]) was 1/6.
